This is an account of results in ChEMBL document CHEMBL1126481, “Low molecular weight neurokinin NK2 antagonists” (Bioorg Med Chem Lett, 1993).

Peptide text beside a SMILES is read from it.

In data set [1] the target is T1, Substance-K receptor (Rattus norvegicus) (UniProt P16610).
T1 sequence (whole entry): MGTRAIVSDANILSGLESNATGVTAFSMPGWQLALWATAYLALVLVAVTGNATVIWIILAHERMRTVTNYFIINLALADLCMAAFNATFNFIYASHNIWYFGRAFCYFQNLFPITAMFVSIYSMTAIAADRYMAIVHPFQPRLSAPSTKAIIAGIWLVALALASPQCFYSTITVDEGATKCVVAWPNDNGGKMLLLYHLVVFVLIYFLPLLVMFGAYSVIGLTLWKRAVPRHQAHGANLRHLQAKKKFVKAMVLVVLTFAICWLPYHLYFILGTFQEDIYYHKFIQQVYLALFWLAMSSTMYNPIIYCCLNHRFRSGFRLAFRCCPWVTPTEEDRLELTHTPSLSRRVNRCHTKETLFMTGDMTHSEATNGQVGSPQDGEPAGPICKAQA
Put plainly: In vitro for antagonism against neurokinin NK2 receptor in rat colon muscularis mucosae. In kind it is functional, tissue-based. The settings on record: Muscularis mucosa.

Data set [2] deals with T2, Substance-K receptor (Cavia porcellus) (UniProt Q64077).
T2 sequence (whole entry): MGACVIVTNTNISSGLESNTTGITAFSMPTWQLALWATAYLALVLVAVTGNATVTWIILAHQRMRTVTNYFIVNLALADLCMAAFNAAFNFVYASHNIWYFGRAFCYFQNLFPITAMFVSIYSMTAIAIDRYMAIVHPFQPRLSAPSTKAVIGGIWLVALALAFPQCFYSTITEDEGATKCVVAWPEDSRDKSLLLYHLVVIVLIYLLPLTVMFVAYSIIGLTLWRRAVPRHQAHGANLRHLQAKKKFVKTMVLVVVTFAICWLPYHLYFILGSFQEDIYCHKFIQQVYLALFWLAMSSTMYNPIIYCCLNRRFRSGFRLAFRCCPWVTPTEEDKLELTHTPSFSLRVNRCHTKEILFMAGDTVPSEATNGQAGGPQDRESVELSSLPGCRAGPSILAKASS
As to the kind of experiment: The compound was tested […] for antagonism against neurokinin NK2 receptor in isolated guinea pig trachea. In kind it is functional.

Data set [3] in a line: Biological half life when administered at 5 umol/kg intravenously to guinea pig in GR-64349 antagonism. The format is ADME, organism-based, Cavia porcellus. The settings on record: in vivo, iv.
Data set [4] concerns the target Substance-P receptor (Cavia porcellus) (UniProt P30547). As to the kind of experiment: The compound was tested […] for antagonism against neurokinin NK1 receptor in isolated guinea pig trachea. The format is functional.
The species named for data set [5] is Oryctolagus cuniculus. Put plainly: Tested for antagonistic activity of compound in endothelium-deprived rabbit pulmonary artery. The settings on record: read-out: pA2 (converted). The format is functional.
The nature of data set [6]: Biological half life when administered at 0.1 umol/kg intravenously to guinea pig in GR-64349 antagonism. In kind it is ADME, organism-based, Cavia porcellus. The note with it: in vivo, iv.
The target of data set [7] is T2, Substance-K receptor (Cavia porcellus). As to the kind of experiment: The compound was tested in vitro for antagonism against Tachykinin receptor 2 in isolated guinea pig trachea. In kind it is functional, tissue-based.
Data set [8] concerns the target T1, Substance-K receptor (Rattus norvegicus). Put plainly: The compound was tested in vitro for antagonism against Tachykinin receptor 2 in rat colon muscularis mucosae. In kind it is functional, tissue-based. The settings on record: Muscularis mucosa.

Sequence of Substance-P receptor (Cavia porcellus) (P30547 whole entry): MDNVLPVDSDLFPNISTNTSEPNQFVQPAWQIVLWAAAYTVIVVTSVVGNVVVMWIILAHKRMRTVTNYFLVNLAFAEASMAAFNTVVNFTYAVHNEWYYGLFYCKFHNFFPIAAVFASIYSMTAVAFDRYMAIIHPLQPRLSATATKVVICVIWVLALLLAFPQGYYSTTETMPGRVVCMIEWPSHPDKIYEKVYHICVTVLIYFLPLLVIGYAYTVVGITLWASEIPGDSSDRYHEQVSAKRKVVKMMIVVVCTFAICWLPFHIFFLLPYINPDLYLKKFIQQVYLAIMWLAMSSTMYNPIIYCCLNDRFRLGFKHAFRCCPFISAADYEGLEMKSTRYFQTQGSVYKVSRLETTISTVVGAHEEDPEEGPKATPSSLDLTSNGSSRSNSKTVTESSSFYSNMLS

A word on the pKB: it is the KB on a negative log10 scale, so that one unit is a factor of ten. The low end stands for a high KB, the high end for a low KB. `C[C@H](NC(=O)c1ccccc1)C(=O)N[C@@H](C)C(=O)N[C@H](Cc1c[nH]c2ccccc12)C(=O)N[C@@H](Cc1ccccc1)C(=O)O`: in data set [1], the negative-log KB (pKB) came out at 6.6. Take `C[C@H](NC(=O)c1ccccc1)C(=O)N[C@@H](C)C(=O)NCCc1c[nH]c2ccccc12`: in data set [1], the pKB was 6.02.

In data set [1], `C[C@H](NC(=O)CNC(=O)c1ccccc1)C(=O)N[C@H](Cc1c[nH]c2ccccc12)C(=O)N[C@@H](Cc1ccccc1)C(=O)N(C)C` gave a pKB of 8.87. `CC(C)CCN(C)C(=O)[C@@H](Cc1c[nH]c2ccccc12)NC(=O)[C@H](C)NC(=O)[C@H](C)NC(=O)c1ccccc1` came in with a negative logarithm of the KB (pKB) in data set [1] of 8. In data set [1], `C[C@H](NC(=O)c1ccccc1)C(=O)N[C@@H](C)C(=O)N[C@H](Cc1c[nH]c2ccccc12)C(=O)N[C@@H](Cc1ccccc1)C(=O)N(C)C` returned a negative-log KB (pKB) of 8.56. For orientation: half-life means the time needed for the level to fall by half in the phase considered. The low end stands for fast loss, the high end for slow loss. For the compound `C[C@H](NC(=O)c1ccccc1)C(=O)N[C@@H](C)C(=O)N[C@H](C#N)Cc1c[nH]c2ccccc12`, the results for the pKB in data set [1] and in data set [2] were 6.8 and 7.4, respectively. In data set [3], the half-life is 20 min.

With `C[C@H](NC(=O)c1ccccc1)C(=O)N[C@@H](C)C(=O)N[C@H](Cc1c[nH]c2ccccc12)C(=O)N(C)C`, the negative-log KB (pKB) in data set [1] is 6.45.

On to `CC(C)CCN(C)C(=O)[C@@H](Cc1c[nH]c2ccccc12)NC(=O)[C@H](C)NC(=O)c1c[nH]c(-c2ccccc2)n1`, for which the pKB in data set [4] was found to be 4.9; in data set [1], 7.64; in data set [2], 7.9. In data set [3], the half-life was 140 min. On to `C[C@H](NC(=O)c1ccccc1)C(=O)N[C@@H](C)C(=O)N[C@H](Cc1c[nH]c2ccccc12)C(=O)N(C)CCc1ccccc1`, for which the pKB in data set [1] is 7.4. Take `CC(=O)NC1(c2ccccc2)CCN(CC[C@H](CN(C)C(=O)c2ccccc2)c2ccc(Cl)c(Cl)c2)CC1` [SAREDUTANT]: the Kb in data set [5] is 0.0501 nM.

Take `C[C@H](NC(=O)CNC(=O)C1CCCCC1)C(=O)N[C@H](Cc1c[nH]c2ccccc12)C(=O)N[C@@H](Cc1ccccc1)C(=O)N(C)C` (HELM PEPTIDE1{[O=C(C1CCCCC1)[*:2]].G.A.[dW].F.[CN(C)[*:1]]}$$$$V2.0): the negative logarithm of the KB (pKB) was determined as 5.1 in data set [4], 9.05 in data set [1] and 9.3 in data set [2]. The half-life in data set [6] was 26 min. As for `CC(Cc1c[nH]c2ccccc12)NC(=O)[C@H](C)NC(=O)[C@H](C)NC(=O)c1ccccc1` (some centres not stated), the negative logarithm of the KB (pKB) in data set [1] is less than 5; in data set [7] it was 7.4; in data set [8], 6.66.
